Experiments:
JAK 3 = biological target: T1, JAK 3 (Homo sapiens, UniProt P52333); assay: JAK Human TK kinase enzymatic radiometric assay (Eurofins), JAK 3; assay type: biochemical; parameters: unit not given here; details: value close to 100 indicates low JAK activity of the compound
T1 construct: purchased Eurofins Scientific (assay service)
T1 sequence (P52333 1-1124): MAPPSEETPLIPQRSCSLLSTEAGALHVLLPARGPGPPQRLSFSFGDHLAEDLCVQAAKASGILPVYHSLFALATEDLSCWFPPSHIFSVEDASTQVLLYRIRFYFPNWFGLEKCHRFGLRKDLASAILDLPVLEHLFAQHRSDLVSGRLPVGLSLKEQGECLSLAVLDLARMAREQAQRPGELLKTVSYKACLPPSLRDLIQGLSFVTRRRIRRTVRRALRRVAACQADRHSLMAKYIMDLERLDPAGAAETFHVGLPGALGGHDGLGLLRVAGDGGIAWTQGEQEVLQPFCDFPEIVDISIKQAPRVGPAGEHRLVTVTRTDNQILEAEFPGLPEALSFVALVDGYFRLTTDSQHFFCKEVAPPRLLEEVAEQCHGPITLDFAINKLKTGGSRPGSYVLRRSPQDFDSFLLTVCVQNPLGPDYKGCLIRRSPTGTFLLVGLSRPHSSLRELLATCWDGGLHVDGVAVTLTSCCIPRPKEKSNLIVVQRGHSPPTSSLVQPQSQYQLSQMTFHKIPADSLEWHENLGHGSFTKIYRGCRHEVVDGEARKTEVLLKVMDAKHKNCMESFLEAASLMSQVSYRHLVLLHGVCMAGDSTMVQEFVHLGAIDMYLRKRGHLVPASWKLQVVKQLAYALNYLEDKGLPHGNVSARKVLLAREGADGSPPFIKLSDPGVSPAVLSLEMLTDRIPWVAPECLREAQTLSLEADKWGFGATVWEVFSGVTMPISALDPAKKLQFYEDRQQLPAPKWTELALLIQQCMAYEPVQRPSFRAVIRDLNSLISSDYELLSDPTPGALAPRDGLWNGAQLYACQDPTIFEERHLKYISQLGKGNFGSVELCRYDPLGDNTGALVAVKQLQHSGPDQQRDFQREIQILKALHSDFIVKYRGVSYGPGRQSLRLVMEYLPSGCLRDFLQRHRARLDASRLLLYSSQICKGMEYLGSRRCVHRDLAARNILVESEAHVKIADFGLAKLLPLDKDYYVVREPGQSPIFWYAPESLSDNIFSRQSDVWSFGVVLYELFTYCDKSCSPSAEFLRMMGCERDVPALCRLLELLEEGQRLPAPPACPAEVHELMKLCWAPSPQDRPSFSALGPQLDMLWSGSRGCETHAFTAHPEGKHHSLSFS
Text: For the compounds of the Examples, JAK activity of each of the compounds was verified using the JAK Human TK Kinase Enzymatic Radiometric Kinase Profiler Assay service provided by Eurofins Scientific.
The activity was verified after inducing a reaction at the JAK 1, 2 and 3 active sites using radioactively labeled ATP.

in vivo = assay: in vivo
Method: Specifically, the experimental animals were twelve six-week-old C57BL/6 male mice. The experimental animals were housed in polycarbonate cages in groups of four, and had free access to food and water. The animal housing room was maintained at a temperature of 20±1°C and humidity of about 50±5%, with a constant 12-hour light/dark cycle. The experimental animals were acclimated to the animal room environment for one week, and then randomly divided into three groups of four animals each based on body weight.

[1] = Hematological toxicity evaluation after single oral administration (routine blood test); details: single oral dose 200 mg/kg and 800 mg/kg, compared with the normal group
splenocytes = assay: NO scavenging activity in Concanavalin A-treated splenocytes (Griess assay); assay type: cell-based, C57BL/6 mouse; details: Mus musculus, Splenocyte, Concanavalin A 5 µg/mL, 72 hours, read-out: NO Scavenging Activity (%) (Mean±SD)
How it was run: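 Splenocytes from 8-week-old C57BL/6 mice at 5×10^6 cells/mL in RPMI 1640/10% FBS, stimulated with Concanavalin A (5 µg/mL) plus […] test composition added at plating. After 72 h culture, remaining NO in supernatant measured by Griess assay.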

[2] = Efficacy on collagen-induced rheumatoid arthritis (arthritis score); assay type: in vivo, DBA/1 male mice
Method: (§1) The experimental animals were 30 8-week-old DBA/1 male mice. […] The number of normal mice was set to five in order to minimize the number of experimental animals. The group administered with Compound (1) consisted of 5 to 6 mice, a minimal number required to obtain statistically meaningful data given the limited amount of the drug.
(§2) In order to establish a rheumatoid arthritis model, 100 µL of a mixture solution in which 2 mg/mL of chick type II collagen and 1 mg/mL of Complete Freund's Adjuvant (CFA) were mixed in a ratio of 1:1 was administered intradermally to each of the mouse tails. After 19 days, 100 µL of an emulsion in which 2 mg/mL of chick type II collagen and Incomplete Freund's Adjuvant (IFA) were mixed in a ratio of 1:1 was administered intradermally to each of the mouse tails.
The test substances of Table 23 were administered orally every day according to the drug dosing period and dosing frequency. As for the rheumatoid arthritis score (arthritis score), the score of each of the four paws was quantified according to the criteria shown in the following Table 24, and the individual scores were summed to generate the final score.
as §1, with “31” for “30”, “(11)” for “(1)”, “5” for “5 to 6”, “drug. Each of the remaining groups consisted of 7 mice, with two extra mice added to account for experimental error.” for “drug.”
as §2
Oral administration was conducted daily according to the dose, dosing frequency and dosing period of Table 25. Based on the criteria shown in Table 24, rheumatoid arthritis score for the four paws were quantified and summed to generate the score.

In the case of `C[C@@H]1CCN(C(=O)CC#N)C[C@@H]1N(C)c1ncnc2c1ccn2C(=O)Nc1ccccc1N` [Example 1, N-(2-aminophenyl)-4-(((3R,4R)-1-(2-cyanoacetyl)-4-methylpiperidin-3-yl) (methyl)amino)-7H-pyrrolo[2,3-d]pyrimidine-7-carboxamide], the “JAK 3 Activity” value (JAK 3; 0.1 nM) is reported as 94, the “JAK 3 Activity” value (JAK 3; 1 nM) is reported as 95 and the “JAK 3 Activity” value (JAK 3; 10 nM) is reported as 55. For the same compound, the “JAK 3 Activity” value (JAK 3; 100 nM) was 16, the MTD at 4 days (in vivo; male, mouse, in vivo, po) was 1600 mg/kg and the mortality (in vivo; mice, oral once daily, 200, 400, 800, 1,600 mg/kg escalated daily) was “no mortality was observed”. For the same compound, the hematological toxicity responses [1] was “No hematological toxicity responses were observed”, the activity at 10 µM (splenocytes) was 98.1 ± 0.09% and the “alleviation of rheumatoid arthritis compared with tofacitinib” value ([2]; 30 mg/kg and 60 mg/kg oral once daily, entire period of the experiment) was “comparable to or higher than 40 mg/kg of tofacitinib”. For the same compound, the “average rheumatoid arthritis score compared with tofacitinib” value ([2]; 30 mg/kg oral once daily, FIG. 6) was “comparable to that of the group administered with 40 mg/kg of tofacitinib”, the “rheumatoid arthritis-alleviating efficacy (arthritis score)” value ([2]; 30 mg/kg oral once daily, day 42 to day 47 after disease induction, FIG. 6) was “no statistically significant alleviating efficacy was observed” and the “rheumatoid arthritis-alleviating efficacy (arthritis score)” value ([2]; 30 mg/kg oral once daily, day 49 to the end of the experiment (p<0.05), FIG. 6) was “statistically significant alleviating efficacy was observed again”. For the same compound, the “rheumatoid arthritis-alleviating efficacy (arthritis score)” value ([2]; 30 mg/kg oral once daily, from day 35 after disease induction (p<0.05), FIG. 6) was “Alleviating efficacy was observed” and the “rheumatoid arthritis-alleviating efficacy compared with tofacitinib” value ([2]; 60 mg/kg oral once daily, from day 33 after disease induction (p<0.01) to the end, FIG. 6) was “comparable to or higher than that of the group administered with 40 mg/kg of tofacitinib”.

Source: patent EP4741395A1, “NOVEL COMPOUND SENSITIVE TO NITROGEN MONOXIDE AND PHARMACEUTICAL COMPOSITION COMPRISING SAME” (Omniamed Co. Ltd, priority 2023, dated 2025)
